{"source": "ChEMBL document CHEMBL1212752", "about": "“Efficacy of posaconazole in a murine disseminated infection by Candida tropicalis” (2010)", "key": {"Candida tropicalis [1]": {"test_system": "Candida tropicalis", "test": "Antifungal activity against Candida tropicalis FMR 10239 infected in immunosuppressed OF1 mouse assessed as prolongation of mouse survival at 25 mg/kg, po bid for 5 days", "format": "functional, organism-based", "parameters": "dose 25 mg/kg"}, "Candida tropicalis [2]": {"test_system": "Candida tropicalis", "test": "Antifungal activity against Candida tropicalis FMR 10239 assessed as inhibition of growth by broth dilution method", "format": "functional"}, "Candida tropicalis [3]": {"test_system": "Candida tropicalis", "test": "Antifungal activity against Candida tropicalis FMR 10333 assessed as inhibition of growth by broth dilution method", "format": "functional"}, "Candida tropicalis [4]": {"test_system": "Candida tropicalis", "test": "Antifungal activity against Candida tropicalis FMR 10237 infected in immunosuppressed OF1 mouse assessed as prolongation of mouse survival at 50 mg/kg, po qd for 5 days", "format": "functional, organism-based", "parameters": "dose 50 mg/kg"}, "Candida tropicalis [5]": {"test_system": "Candida tropicalis", "test": "Antifungal activity against Candida tropicalis FMR 9727 infected in immunosuppressed OF1 mouse assessed as reduction in fungal tissue burden in mouse spleen at 50 mg/kg, po qd for 5 days", "format": "functional, organism-based", "parameters": "dose 50 mg/kg"}, "Candida tropicalis [6]": {"test_system": "Candida tropicalis", "test": "Antifungal activity against Candida tropicalis FMR 8898 assessed as inhibition of growth by broth dilution method", "format": "functional"}, "Candida tropicalis [7]": {"test_system": "Candida tropicalis", "test": "Antifungal activity against Candida tropicalis FMR 10235 assessed as inhibition of growth by broth dilution method", "format": "functional"}, "Candida tropicalis [8]": {"test_system": "Candida tropicalis", "test": "Antifungal activity against Candida tropicalis FMR 8897 assessed as compound concentration causing =>99% reduction in microbial growth", "format": "functional"}, "Candida tropicalis [9]": {"test_system": "Candida tropicalis", "test": "Antifungal activity against Candida tropicalis FMR 8896 assessed as inhibition of growth by broth dilution method", "format": "functional"}, "Candida tropicalis [10]": {"test_system": "Candida tropicalis", "test": "Antifungal activity against Candida tropicalis FMR 9727 infected in immunosuppressed OF1 mouse assessed as prolongation of mouse survival at 25 mg/kg, po bid for 5 days", "format": "functional, organism-based", "parameters": "dose 25 mg/kg"}, "Candida tropicalis [11]": {"test_system": "Candida tropicalis", "test": "Antifungal activity against Candida tropicalis FMR 10239 infected in immunosuppressed OF1 mouse assessed as reduction in fungal tissue burden in mouse kidney at 25 mg/kg, po bid for 5 dayss", "format": "functional, organism-based", "parameters": "dose 25 mg/kg"}, "Candida tropicalis [12]": {"test_system": "Candida tropicalis", "test": "Antifungal activity against Candida tropicalis FMR 8895 infected in immunosuppressed OF1 mouse assessed as prolongation of mouse survival at 50 mg/kg, po qd for 5 days", "format": "functional, organism-based", "parameters": "dose 50 mg/kg"}, "Candida tropicalis [13]": {"test_system": "Candida tropicalis", "test": "Antifungal activity against Candida tropicalis FMR 10237 infected in immunosuppressed OF1 mouse assessed as reduction in fungal tissue burden in mouse kidney at 50 mg/kg, po qd for 5 days", "format": "functional, organism-based", "parameters": "dose 50 mg/kg"}, "Candida tropicalis [14]": {"test_system": "Candida tropicalis", "test": "Antifungal activity against Candida tropicalis FMR 10241 assessed as compound concentration causing =>99% reduction in microbial growth", "format": "functional"}, "Candida tropicalis [15]": {"test_system": "Candida tropicalis", "test": "Antifungal activity against Candida tropicalis FMR 10237 assessed as compound concentration causing =>99% reduction in microbial growth", "format": "functional"}, "Candida tropicalis [16]": {"test_system": "Candida tropicalis", "test": "Antifungal activity against Candida tropicalis FMR 10231 assessed as compound concentration causing =>99% reduction in microbial growth", "format": "functional"}, "Candida tropicalis [17]": {"test_system": "Candida tropicalis", "test": "Antifungal activity against Candida tropicalis FMR 8895 assessed as inhibition of growth by broth dilution method", "format": "functional"}, "Candida tropicalis [18]": {"test_system": "Candida tropicalis", "test": "Antifungal activity against Candida tropicalis FMR 10237 infected in immunosuppressed OF1 mouse assessed as reduction in fungal tissue burden in mouse kidney at 25 mg/kg, po bid for 5 days", "format": "functional, organism-based", "parameters": "dose 25 mg/kg"}, "Candida tropicalis [19]": {"test_system": "Candida tropicalis", "test": "Antifungal activity against Candida tropicalis FMR 9726 infected in immunosuppressed OF1 mouse assessed as prolongation of mouse survival at 50 mg/kg, po qd for 5 days", "format": "functional, organism-based", "parameters": "dose 50 mg/kg"}, "Candida tropicalis [20]": {"test_system": "Candida tropicalis", "test": "Antifungal activity against Candida tropicalis FMR 10231 assessed as inhibition of growth by broth dilution method", "format": "functional"}, "Candida tropicalis [21]": {"test_system": "Candida tropicalis", "test": "Antifungal activity against Candida tropicalis FMR 10238 assessed as inhibition of growth by broth dilution method", "format": "functional"}, "Candida tropicalis [22]": {"test_system": "Candida tropicalis", "test": "Antifungal activity against Candida tropicalis FMR 10237 infected in immunosuppressed OF1 mouse assessed as reduction in fungal tissue burden in mouse spleen at 50 mg/kg, po qd for 5 days", "format": "functional, organism-based", "parameters": "dose 50 mg/kg"}, "Candida tropicalis [23]": {"test_system": "Candida tropicalis", "test": "Antifungal activity against Candida tropicalis FMR 9726 infected in immunosuppressed OF1 mouse assessed as reduction in fungal tissue burden in mouse kidney at 25 mg/kg, po bid for 5 days", "format": "functional, organism-based", "parameters": "dose 25 mg/kg"}, "Candida tropicalis [24]": {"test_system": "Candida tropicalis", "test": "Antifungal activity against Candida tropicalis FMR 10239 infected in immunosuppressed OF1 mouse assessed as reduction in fungal tissue burden in mouse spleen at 25 mg/kg, po bid for 5 days", "format": "functional, organism-based", "parameters": "dose 25 mg/kg"}, "Candida tropicalis [25]": {"test_system": "Candida tropicalis", "test": "Antifungal activity against Candida tropicalis FMR 9727 infected in immunosuppressed OF1 mouse assessed as reduction in fungal tissue burden in mouse kidney at 50 mg/kg, po qd for 5 days", "format": "functional, organism-based", "parameters": "dose 50 mg/kg"}, "Candida tropicalis [26]": {"test_system": "Candida tropicalis", "test": "Antifungal activity against Candida tropicalis FMR 10238 assessed as compound concentration causing =>99% reduction in microbial growth", "format": "functional"}, "Candida tropicalis [27]": {"test_system": "Candida tropicalis", "test": "Antifungal activity against Candida tropicalis FMR 9727 assessed as compound concentration causing =>99% reduction in microbial growth", "format": "functional"}, "Candida tropicalis [28]": {"test_system": "Candida tropicalis", "test": "Antifungal activity against Candida tropicalis FMR 10232 assessed as compound concentration causing =>99% reduction in microbial growth", "format": "functional"}, "Candida tropicalis [29]": {"test_system": "Candida tropicalis", "test": "Antifungal activity against Candida tropicalis FMR 10240 assessed as inhibition of growth by broth dilution method", "format": "functional"}, "Candida tropicalis [30]": {"test_system": "Candida tropicalis", "test": "Antifungal activity against Candida tropicalis FMR 10239 infected in immunosuppressed OF1 mouse assessed as reduction in fungal tissue burden in mouse kidney at 50 mg/kg, po qd for 5 dayss", "format": "functional, organism-based", "parameters": "dose 50 mg/kg"}, "Candida tropicalis [31]": {"test_system": "Candida tropicalis", "test": "Antifungal activity against Candida tropicalis FMR 10234 assessed as inhibition of growth by broth dilution method", "format": "functional"}, "Candida tropicalis [32]": {"test_system": "Candida tropicalis", "test": "Antifungal activity against Candida tropicalis FMR 10236 assessed as inhibition of growth by broth dilution method", "format": "functional"}}, "note": "The source made the active and inactive calls. No cut-off for these calls is given here."}
{"smiles": "CC[C@@H]([C@H](C)O)n1ncn(-c2ccc(N3CCN(c4ccc(OC[C@@H]5CO[C@@](Cn6cncn6)(c6ccc(F)cc6F)C5)cc4)CC3)cc2)c1=O", "note": "[POSACONAZOLE]", "values": [{"measurement": "Activity", "setting": "Candida tropicalis [1]", "result": "Active"}, {"measurement": "MIC50", "setting": "Candida tropicalis [2]", "result": "< 0.03", "unit": "µg/mL"}, {"measurement": "MIC50", "setting": "Candida tropicalis [3]", "result": 0.06, "unit": "µg/mL"}, {"measurement": "Activity", "setting": "Candida tropicalis [4]", "result": "Active"}, {"measurement": "Activity", "setting": "Candida tropicalis [5]", "result": "Active"}, {"measurement": "MIC50", "setting": "Candida tropicalis [6]", "result": 0.125, "unit": "µg/mL"}, {"measurement": "MIC50", "setting": "Candida tropicalis [7]", "result": 0.125, "unit": "µg/mL"}, {"measurement": "MFC", "setting": "Candida tropicalis [8]", "result": "> 16", "unit": "µg/mL"}, {"measurement": "MIC50", "setting": "Candida tropicalis [9]", "result": 0.125, "unit": "µg/mL"}, {"measurement": "Activity", "setting": "Candida tropicalis [10]", "result": "Active"}, {"measurement": "Activity", "setting": "Candida tropicalis [11]", "result": "Active"}, {"measurement": "Activity", "setting": "Candida tropicalis [12]", "result": "Active"}, {"measurement": "Activity", "setting": "Candida tropicalis [13]", "result": "Active"}, {"measurement": "MFC", "setting": "Candida tropicalis [14]", "result": "> 16", "unit": "µg/mL"}, {"measurement": "MFC", "setting": "Candida tropicalis [15]", "result": "> 16", "unit": "µg/mL"}, {"measurement": "MFC", "setting": "Candida tropicalis [16]", "result": "> 16", "unit": "µg/mL"}, {"measurement": "MIC50", "setting": "Candida tropicalis [17]", "result": "> 16", "unit": "µg/mL"}, {"measurement": "Activity", "setting": "Candida tropicalis [18]", "result": "Active"}, {"measurement": "Activity", "setting": "Candida tropicalis [19]", "result": "Active"}, {"measurement": "MIC50", "setting": "Candida tropicalis [20]", "result": 0.06, "unit": "µg/mL"}, {"measurement": "MIC50", "setting": "Candida tropicalis [21]", "result": 0.06, "unit": "µg/mL"}, {"measurement": "Activity", "setting": "Candida tropicalis [22]", "result": "Active"}, {"measurement": "Activity", "setting": "Candida tropicalis [23]", "result": "Active"}, {"measurement": "Activity", "setting": "Candida tropicalis [24]", "result": "Active"}, {"measurement": "Activity", "setting": "Candida tropicalis [25]", "result": "Active"}, {"measurement": "MFC", "setting": "Candida tropicalis [26]", "result": "> 16", "unit": "µg/mL"}, {"measurement": "MFC", "setting": "Candida tropicalis [27]", "result": "> 16", "unit": "µg/mL"}, {"measurement": "MFC", "setting": "Candida tropicalis [28]", "result": "> 16", "unit": "µg/mL"}, {"measurement": "MIC50", "setting": "Candida tropicalis [29]", "result": "< 0.03", "unit": "µg/mL"}, {"measurement": "Activity", "setting": "Candida tropicalis [30]", "result": "Active"}, {"measurement": "MIC50", "setting": "Candida tropicalis [31]", "result": 0.06, "unit": "µg/mL"}, {"measurement": "MIC50", "setting": "Candida tropicalis [32]", "result": 0.06, "unit": "µg/mL"}]}
